Measured values from publication PMC6311682, “Design, Synthesis, and Biological Evaluation of 2-Nitroimidazopyrazin-one/-es with Antitubercular and Antiparasitic Activity” (Journal of Medicinal Chemistry, 2018).
Values after ≈ are worked out from the molar mass of the structure shown. Marks after values point to notes of the source that are not given here.

Test system: L. donovani MHOM/IN/80/DD8 (ATCC50212)
Assay: L. donovani DD8 intracellular (THP-1) amastigote assay
Assay type: cell-based
Conditions: Leishmania donovani, read-out: antiparasitic IC50 L. donovani

Compound	IC50 [µM]
CC(=O)OCCOc1nc(-c2ccccc2)cn2cc([N+](=O)[O-])nc12 [24c, 2-((2-Nitro-6-phenylimidazo[1,2-a]pyrazin-8-yl)oxy)ethyl Acetate]	> 80
O=[N+]([O-])c1cn2cc(-c3ccccc3)nc(OCCO)c2n1 [24e, 2-((2-Nitro-6-phenylimidazo[1,2-a]pyrazin-8-yl)oxy)ethan-1-ol]	> 80
Cc1cn2cc([N+](=O)[O-])nc2c(=O)[nH]1 [25a, 6-Methyl-2-nitroimidazo[1,2-a]pyrazin-8(7H)-one]	> 80

Same assay, conditions: Leishmania donovani, read-out: antiparasitic pIC50 ± SE L. donovani (converted)

Compound	IC50 [µM]
CC(=O)OCCOc1nc(-c2ccccc2)cn2cc([N+](=O)[O-])nc12 [24c, 2-((2-Nitro-6-phenylimidazo[1,2-a]pyrazin-8-yl)oxy)ethyl Acetate]	> 79.4
O=[N+]([O-])c1cn2cc(-c3ccccc3)nc(OCCO)c2n1 [24e, 2-((2-Nitro-6-phenylimidazo[1,2-a]pyrazin-8-yl)oxy)ethan-1-ol]	> 79.4
Cc1cn2cc([N+](=O)[O-])nc2c(=O)[nH]1 [25a, 6-Methyl-2-nitroimidazo[1,2-a]pyrazin-8(7H)-one]	> 79.4

Test system: C. difficile (630, ATCC BAA-1382)
Assay: Broth microdilution MIC assay, C. difficile
Assay type: cell-based, Clostridium difficile
Conditions: 630 ATCC BAA-1382, median MIC

Compound	antibacterial MIC C. difficile [µg/mL]
CC(=O)OCCOc1nc(-c2ccccc2)cn2cc([N+](=O)[O-])nc12 [24c, 2-((2-Nitro-6-phenylimidazo[1,2-a]pyrazin-8-yl)oxy)ethyl Acetate]	>64
O=[N+]([O-])c1cn2cc(-c3ccccc3)nc(OCCO)c2n1 [24e, 2-((2-Nitro-6-phenylimidazo[1,2-a]pyrazin-8-yl)oxy)ethan-1-ol]	>64
Cc1cn2cc([N+](=O)[O-])nc2c(=O)[nH]1 [25a, 6-Methyl-2-nitroimidazo[1,2-a]pyrazin-8(7H)-one]	>64

Same assay, conditions: Clostridioides difficile, ATCCBAA1382; 630 ATCC BAA-1382, median MIC; read-out: antibacterial MIC C. difficile

Compound	MIC [µg/mL]
CC(=O)OCCOc1nc(-c2ccccc2)cn2cc([N+](=O)[O-])nc12 [24c, 2-((2-Nitro-6-phenylimidazo[1,2-a]pyrazin-8-yl)oxy)ethyl Acetate]	> 64
O=[N+]([O-])c1cn2cc(-c3ccccc3)nc(OCCO)c2n1 [24e, 2-((2-Nitro-6-phenylimidazo[1,2-a]pyrazin-8-yl)oxy)ethan-1-ol]	> 64
Cc1cn2cc([N+](=O)[O-])nc2c(=O)[nH]1 [25a, 6-Methyl-2-nitroimidazo[1,2-a]pyrazin-8(7H)-one]	> 64

Test system: not listed separately
Assay: Broth microdilution MIC assay, ESKAPE pathogens
Assay type: cell-based
Conditions: S. aureus, E. coli, K. pneumoniae, A. baumannii, P. aeruginosa; read-out: antibacterial MIC ESKAPE

Compound	MIC [µg/mL]
CC(=O)OCCOc1nc(-c2ccccc2)cn2cc([N+](=O)[O-])nc12 [24c, 2-((2-Nitro-6-phenylimidazo[1,2-a]pyrazin-8-yl)oxy)ethyl Acetate]	> 32
O=[N+]([O-])c1cn2cc(-c3ccccc3)nc(OCCO)c2n1 [24e, 2-((2-Nitro-6-phenylimidazo[1,2-a]pyrazin-8-yl)oxy)ethan-1-ol]	16 to 32 (≈ 53.3 to 107 µM)
Cc1cn2cc([N+](=O)[O-])nc2c(=O)[nH]1 [25a, 6-Methyl-2-nitroimidazo[1,2-a]pyrazin-8(7H)-one]	> 32

Test system: ESKAPE pathogens S. aureus (ATCC 43300), E. coli (ATCC 25922), K. pneumoniae (ATCC 700603), A. baumannii (ATCC 19606), P. aeruginosa (ATCC 27853)
Assay: Broth microdilution MIC assay, ESKAPE pathogens
Assay type: cell-based
Conditions: not given

Compound	antibacterial MIC ESKAPE
CC(=O)OCCOc1nc(-c2ccccc2)cn2cc([N+](=O)[O-])nc12 [24c, 2-((2-Nitro-6-phenylimidazo[1,2-a]pyrazin-8-yl)oxy)ethyl Acetate]	>32 µg/mL
O=[N+]([O-])c1cn2cc(-c3ccccc3)nc(OCCO)c2n1 [24e, 2-((2-Nitro-6-phenylimidazo[1,2-a]pyrazin-8-yl)oxy)ethan-1-ol]	16-32* μg/mL
Cc1cn2cc([N+](=O)[O-])nc2c(=O)[nH]1 [25a, 6-Methyl-2-nitroimidazo[1,2-a]pyrazin-8(7H)-one]	>32 µg/mL

Test system: C. albicans (ATCC 90028) and C. neoformans (H99, ATCC 208821)
Assay: Broth microdilution MIC assay, fungi
Assay type: cell-based
Conditions: not given

Compound	antifungal MIC [µg/mL]
CC(=O)OCCOc1nc(-c2ccccc2)cn2cc([N+](=O)[O-])nc12 [24c, 2-((2-Nitro-6-phenylimidazo[1,2-a]pyrazin-8-yl)oxy)ethyl Acetate]	>32
O=[N+]([O-])c1cn2cc(-c3ccccc3)nc(OCCO)c2n1 [24e, 2-((2-Nitro-6-phenylimidazo[1,2-a]pyrazin-8-yl)oxy)ethan-1-ol]	>32
Cc1cn2cc([N+](=O)[O-])nc2c(=O)[nH]1 [25a, 6-Methyl-2-nitroimidazo[1,2-a]pyrazin-8(7H)-one]	>32

Same assay, conditions: Candida albicans, read-out: antifungal MIC

Compound	MIC [µg/mL]
CC(=O)OCCOc1nc(-c2ccccc2)cn2cc([N+](=O)[O-])nc12 [24c, 2-((2-Nitro-6-phenylimidazo[1,2-a]pyrazin-8-yl)oxy)ethyl Acetate]	> 32
O=[N+]([O-])c1cn2cc(-c3ccccc3)nc(OCCO)c2n1 [24e, 2-((2-Nitro-6-phenylimidazo[1,2-a]pyrazin-8-yl)oxy)ethan-1-ol]	> 32
Cc1cn2cc([N+](=O)[O-])nc2c(=O)[nH]1 [25a, 6-Methyl-2-nitroimidazo[1,2-a]pyrazin-8(7H)-one]	> 32

Test system: not listed separately
Assay: Kinetic solubility determination by LC-UV
Conditions: PBS, pH 7.4, Solubility µM (PBS), PBS pH 7.4, 24 h, room temperature, 1% DMSO

Compound	solubility at 24 h [µM]
CC(=O)OCCOc1nc(-c2ccccc2)cn2cc([N+](=O)[O-])nc12 [24c, 2-((2-Nitro-6-phenylimidazo[1,2-a]pyrazin-8-yl)oxy)ethyl Acetate]	< 5
O=[N+]([O-])c1cn2cc(-c3ccccc3)nc(OCCO)c2n1 [24e, 2-((2-Nitro-6-phenylimidazo[1,2-a]pyrazin-8-yl)oxy)ethan-1-ol]	< 5
Cc1cn2cc([N+](=O)[O-])nc2c(=O)[nH]1 [25a, 6-Methyl-2-nitroimidazo[1,2-a]pyrazin-8(7H)-one]	183 ± 29.2 (≈ 35.5 µg/mL)

Same assay, conditions: water, Solubility µM (H2O), 24 h, room temperature, 1% DMSO

Compound	solubility at 24 h [µM]
CC(=O)OCCOc1nc(-c2ccccc2)cn2cc([N+](=O)[O-])nc12 [24c, 2-((2-Nitro-6-phenylimidazo[1,2-a]pyrazin-8-yl)oxy)ethyl Acetate]	< 5
O=[N+]([O-])c1cn2cc(-c3ccccc3)nc(OCCO)c2n1 [24e, 2-((2-Nitro-6-phenylimidazo[1,2-a]pyrazin-8-yl)oxy)ethan-1-ol]	< 5
Cc1cn2cc([N+](=O)[O-])nc2c(=O)[nH]1 [25a, 6-Methyl-2-nitroimidazo[1,2-a]pyrazin-8(7H)-one]	182 ± 18.2 (≈ 35.3 µg/mL)

Test system: not listed separately
Assay: Mammalian cytotoxicity assay (resazurin), HepG2
Conditions: human, HepG2 cells

Compound	CC50 at 24 h [µM]
CC(=O)OCCOc1nc(-c2ccccc2)cn2cc([N+](=O)[O-])nc12 [24c, 2-((2-Nitro-6-phenylimidazo[1,2-a]pyrazin-8-yl)oxy)ethyl Acetate]	> 100
O=[N+]([O-])c1cn2cc(-c3ccccc3)nc(OCCO)c2n1 [24e, 2-((2-Nitro-6-phenylimidazo[1,2-a]pyrazin-8-yl)oxy)ethan-1-ol]	> 100
Cc1cn2cc([N+](=O)[O-])nc2c(=O)[nH]1 [25a, 6-Methyl-2-nitroimidazo[1,2-a]pyrazin-8(7H)-one]	> 100

Test system: not listed separately
Assay: Mammalian cytotoxicity assay (resazurin), HEK293
Conditions: human, HEK293 cells

Compound	CC50 at 24 h [µM]
CC(=O)OCCOc1nc(-c2ccccc2)cn2cc([N+](=O)[O-])nc12 [24c, 2-((2-Nitro-6-phenylimidazo[1,2-a]pyrazin-8-yl)oxy)ethyl Acetate]	> 100
O=[N+]([O-])c1cn2cc(-c3ccccc3)nc(OCCO)c2n1 [24e, 2-((2-Nitro-6-phenylimidazo[1,2-a]pyrazin-8-yl)oxy)ethan-1-ol]	> 100
Cc1cn2cc([N+](=O)[O-])nc2c(=O)[nH]1 [25a, 6-Methyl-2-nitroimidazo[1,2-a]pyrazin-8(7H)-one]	> 100
